Read-outs that look alike come from different tables or passages of the source. Values belong to the molecule of their own block, whether it stands above or below them.
How the values were obtained:
GR [1] = target: T1, GR (Homo sapiens, UniProt P04150); experiment: GRE (TAT3-Luc) activation luciferase assay in CV-1 cells transfected with GR; type: cell-based
T1 construct: expressed in transfected cells; host or cells: CV-1 cells, transient transfection (plasmid a gift of Keith Yamamoto, UCSF)
T1 sequence (P04150 1-777): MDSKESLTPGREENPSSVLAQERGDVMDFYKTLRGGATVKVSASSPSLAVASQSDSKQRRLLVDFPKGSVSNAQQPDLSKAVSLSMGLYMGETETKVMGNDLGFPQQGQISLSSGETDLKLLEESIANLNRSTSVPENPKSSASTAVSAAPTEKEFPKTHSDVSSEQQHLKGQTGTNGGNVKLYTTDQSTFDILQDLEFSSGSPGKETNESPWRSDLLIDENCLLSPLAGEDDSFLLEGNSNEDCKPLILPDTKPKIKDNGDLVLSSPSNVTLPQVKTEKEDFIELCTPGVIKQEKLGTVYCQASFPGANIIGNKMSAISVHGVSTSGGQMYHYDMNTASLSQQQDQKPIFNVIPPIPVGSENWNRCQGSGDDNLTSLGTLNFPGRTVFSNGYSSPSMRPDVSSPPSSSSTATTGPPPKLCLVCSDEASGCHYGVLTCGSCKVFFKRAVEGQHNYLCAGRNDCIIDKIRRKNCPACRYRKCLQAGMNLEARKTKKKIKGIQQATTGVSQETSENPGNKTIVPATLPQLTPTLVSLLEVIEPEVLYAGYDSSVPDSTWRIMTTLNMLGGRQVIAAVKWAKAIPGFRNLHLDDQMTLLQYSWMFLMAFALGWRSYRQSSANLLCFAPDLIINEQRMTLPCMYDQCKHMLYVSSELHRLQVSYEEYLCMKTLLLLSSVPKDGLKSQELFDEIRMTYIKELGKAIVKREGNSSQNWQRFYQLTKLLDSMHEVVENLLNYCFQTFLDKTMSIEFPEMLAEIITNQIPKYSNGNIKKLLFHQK
Protocol: Cells were plated into tissue culture treated, 96 well flat bottom plates (25,000 cells/well), and incubated for 12 h at 37° C. Cells were then transfected using the Lipofectamine PLUS transfection reagent (Gibco BRL). DNA-lipid complexes of 5 ng GR, 50 ng TAT3-Luc, 7.5 ng β-galactosidase, 1 μL-well PLUS reagent and 0.67 μL-well lipofectamine in 50 μL/well serum free media were added to cells and incubated for 4 h at 37° C. Complexes were removed and hormones diluted in 5% charcoal-stripped FBS were added to the cells, which were then incubated for 24 hours at 37° C. Media was removed and the cells were washed with 100 μL Ca^+2, Mg^+2 free phosphate buffered saline (PBS). Lysis was achieved by adding 50 μL of Passive Lysis Buffer (Promega Corp, Madison, Wis.) and shaking the plate for 15 min. 15 μL of this lysate was then used to assay β-galactosidase activity (β-galactosidase enzyme assay system, Promega Corp., recommended procedures followed). The Luciferase Assay System (Promega Corp.) was used to assay luciferase activity. 100 μL of luciferase assay reagent was added rapidly to the plate and luminescence was measured for 10 ms/well on an Analyst AD Detection System (LJL Biosystems, Sunnyvale, Calif.).

MR = target: T2, MR (Homo sapiens, UniProt P08235); experiment: MR activation (max fold activation); type: cell-based; conditions: Table 4
T2 sequence (P08235 1-984): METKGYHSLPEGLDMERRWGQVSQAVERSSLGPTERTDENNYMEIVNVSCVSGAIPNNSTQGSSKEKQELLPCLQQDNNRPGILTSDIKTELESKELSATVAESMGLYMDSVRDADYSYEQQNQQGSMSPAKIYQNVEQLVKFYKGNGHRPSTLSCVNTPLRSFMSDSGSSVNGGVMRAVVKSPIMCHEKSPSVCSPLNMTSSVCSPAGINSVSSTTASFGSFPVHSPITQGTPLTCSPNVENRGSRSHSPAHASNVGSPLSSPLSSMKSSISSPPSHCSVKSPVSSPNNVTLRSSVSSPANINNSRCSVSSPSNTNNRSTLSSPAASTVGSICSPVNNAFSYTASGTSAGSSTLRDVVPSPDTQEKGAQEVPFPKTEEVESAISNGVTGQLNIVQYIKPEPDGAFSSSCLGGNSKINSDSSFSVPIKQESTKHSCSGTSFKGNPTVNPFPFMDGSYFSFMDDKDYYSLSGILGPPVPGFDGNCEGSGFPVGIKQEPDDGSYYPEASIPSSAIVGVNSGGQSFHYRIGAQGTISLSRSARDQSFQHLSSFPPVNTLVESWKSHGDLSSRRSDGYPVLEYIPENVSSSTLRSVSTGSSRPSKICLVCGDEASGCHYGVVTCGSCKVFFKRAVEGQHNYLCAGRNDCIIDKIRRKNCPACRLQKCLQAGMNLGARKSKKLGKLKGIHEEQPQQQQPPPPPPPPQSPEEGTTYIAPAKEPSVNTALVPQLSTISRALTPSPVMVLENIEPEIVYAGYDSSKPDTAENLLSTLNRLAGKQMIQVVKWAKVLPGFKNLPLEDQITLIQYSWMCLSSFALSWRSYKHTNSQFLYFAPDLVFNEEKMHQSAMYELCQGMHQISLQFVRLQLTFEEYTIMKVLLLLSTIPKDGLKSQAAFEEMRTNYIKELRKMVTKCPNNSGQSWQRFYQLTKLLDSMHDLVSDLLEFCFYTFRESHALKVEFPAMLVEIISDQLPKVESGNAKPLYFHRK

[2] = target: T3, glucocorticoid receptor (GR) (Homo sapiens, UniProt P04150); experiment: Glucocorticoid Receptor Competitor Assay Kit (Panvera) ligand binding; conditions: for GR binding RBA (dex = 100): Table 3; for GR binding RBA (dex = 100) / GR Binding RBA (dexamethasone = 100): relative binding affinity, dexamethasone = 100; for GR Binding RBA (dexamethasone = 100): Table 1
T3 construct: purchased Panvera Corp, Madison, Wis
T3 sequence (P04150 1-777): T1 sequence (P04150 1-777)
Text: The Glucocorticoid Receptor Competitor Assay Kit (Panvera Corp, Madison, Wis.) was used for ligand binding studies. The recommended room temperature protocol was followed for all assayed ligands.

GR [3] = target: T4, GR (Rattus norvegicus, UniProt P06536); experiment: AP-1 repression luciferase assay in U2OS cells stably transfected with rat GR; type: cell-based; conditions: Table 5, TPA-stimulated U2OS cells; for EC50: read-out: Repression AP-1 pot (EC50); for Emax: U2OS, 12 h, read-out: Repression AP-1 % max repression
T4 construct: expressed in transfected cells; gift of Keith Yamamoto
T4 sequence (P06536 1-795): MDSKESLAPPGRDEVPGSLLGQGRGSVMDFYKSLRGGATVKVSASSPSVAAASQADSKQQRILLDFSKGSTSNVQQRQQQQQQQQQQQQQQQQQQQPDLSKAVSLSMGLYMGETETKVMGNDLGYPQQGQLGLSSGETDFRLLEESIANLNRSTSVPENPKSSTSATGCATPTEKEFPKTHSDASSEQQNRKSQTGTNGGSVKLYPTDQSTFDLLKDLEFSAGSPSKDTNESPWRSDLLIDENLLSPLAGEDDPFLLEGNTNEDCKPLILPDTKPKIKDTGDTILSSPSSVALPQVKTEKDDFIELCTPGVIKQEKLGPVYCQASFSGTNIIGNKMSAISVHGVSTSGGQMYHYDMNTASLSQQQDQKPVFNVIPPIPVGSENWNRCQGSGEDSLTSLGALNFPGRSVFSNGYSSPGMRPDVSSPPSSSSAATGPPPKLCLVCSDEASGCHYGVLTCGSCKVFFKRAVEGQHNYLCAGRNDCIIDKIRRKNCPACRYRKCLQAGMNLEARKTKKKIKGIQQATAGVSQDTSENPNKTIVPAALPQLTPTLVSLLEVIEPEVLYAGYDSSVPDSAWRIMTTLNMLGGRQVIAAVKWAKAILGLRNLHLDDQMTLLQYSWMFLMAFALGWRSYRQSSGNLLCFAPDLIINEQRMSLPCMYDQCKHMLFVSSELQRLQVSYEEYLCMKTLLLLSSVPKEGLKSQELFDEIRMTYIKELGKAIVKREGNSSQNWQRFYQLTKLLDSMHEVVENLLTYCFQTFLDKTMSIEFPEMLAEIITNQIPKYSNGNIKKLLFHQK
Protocol: For API repression assays, U2OS cells stably transfected with rat GR were grown in similar media as for CV-1 cells with the exception of the FBS concentration, which was 10% and the only antibiotic was […]. Cells were plated and transfected in a similar fashion, except for plasmids, which in this case were 50 ng/well AP1-Luc and 10 ng/well β-galactosidase. Post-transfection, cells were incubated with either 50 ng/mL TPA (Phorbol 12-myristate 13-acetate), or 50 ng/mL TPA and various hormone dilutions in 10% charcoal treated FBS media. The cells were incubated for 12 h, and the lysis, β-galactosidase assay, and luciferase assay were performed as previously described.

Coll A = Coll A repression; type: cell-based; conditions: for Emax: read-out: Repression Coll A % max repression; for EC50: read-out: Repression Coll A pot (EC50)
[4] = Table 4, read-out: GR pot (EC50)
[5] = read-out: IC50 in a GR binding assay
[6] = Table 2, read-out: GR Binding (IC50)

SMILES: C[C@]12CCC(=O)C=C1CC[C@@H]1[C@@H]2[C@@H](O)C[C@]2(C=O)[C@@H](C(=O)CO)CC[C@@H]12 [Aldosterone, reference compound]
GRE activation max fold activation (GR [1]; Table 4, fold): 41
EC50 (GR [1]; [4]): 765 nM
MR max fold activation (MR): 6.1 ± 1.5

SMILES: CC12Cc3cnn(-c4ccc(F)cc4)c3C=C1CCCC2=O (centres unmarked) [Compound 205, 1-(4-Fluoro-phenyl)-4a-methyl-1,4,4a,6,7,8-hexahydro-benzo[f]indazol-5-one]
IC50 [2, 5]: 436 nM

SMILES: COc1cc(C(O)C2CCCC3=Cc4c(cnn4-c4ccc(F)cc4)CC32C)cc(OC)c1OC (centres unmarked) [Compound 223, [1-(4-Fluoro-phenyl)-4a-methyl-4,4a,5,6,7,8-hexahydro-1H-benzo[f]indazol-5-yl]-(3,4,5-trimethoxyphenyl)-methanol]
GR binding RBA (dex = 100) [2]: 47
GRE activation max fold activation (GR [1]; Table 4, fold): 32 ± 2
EC50 (GR [1]; [4]): 143 ± 27 nM
EC50 (GR [3]): 6.7 nM
Emax (GR [3]): 74%

SMILES: Cc1cc(O)cc(C)c1C(=O)C1CCCC2=Cc3c(cnn3-c3ccc(F)cc3)CC21C (centres unmarked) [Compound 228, 4-{[1-(4-Fluoro-phenyl)-4a-methyl-4,4a,5,6,7,8-hexahydro-1H-benzo[f]indazol-5-yl]-keto-methyl}-3,5-dimethyl-phenol]
GR Binding RBA (dexamethasone = 100) [2]: 16

SMILES: Cc1cc(O)cc(C)c1CC1CCCC2=Cc3c(cnn3-c3ccc(F)cc3)CC21C (centres unmarked) [Compound 230, 4-{[1-(4-Fluoro-phenyl)-4a-methyl-4,4a,5,6,7,8-hexahydro-1H-benzo[f]indazol-5-yl]-methyl}-3,5-dimethyl-phenol]
GR Binding RBA (dexamethasone = 100) [2]: 22

SMILES: COCOC(c1c(C)cc(O)cc1C)C1CCCC2=Cc3c(cnn3-c3ccc(F)cc3)CC21C (centres unmarked) [Compound 232, 4-{[1-(4-Fluoro-phenyl)-4a-methyl-4,4a,5,6,7,8-hexahydro-1H-benzo[f]indazol-5-yl]-methoxymethoxy-methyl}-3,5-dimethyl-phenol]
GR Binding RBA (dexamethasone = 100) [2]: 26
EC50 (GR [1]; Table 1, read-out: GR pot(EC50)): 82 nM

SMILES: Cc1cc(C(O)C2CCCC3=Cc4c(cnn4-c4ccc(F)cc4)CC32C)ccc1O (centres unmarked) [Compound 235, 4-{[1-(4-Fluoro-phenyl)-4a-methyl-4,4a,5,6,7,8-hexahydro-1H-benzo[f]indazol-5-yl]-hydroxy-methyl}-2-methyl-phenol]
GR binding RBA (dex = 100) [2]: 110
GRE activation max fold activation (GR [1]; Table 4, fold): 76
EC50 (GR [1]; [4]): 81 nM
EC50 (GR [3]): 16.6 nM
Emax (GR [3]): 74%

SMILES: CC12Cc3cnn(-c4ccc(F)cc4)c3C=C1CCCC2C(O)c1cc2ccccc2c2ccccc12 (centres unmarked) [Compound 259, [1-(4-Fluoro-phenyl)-4a-methyl-4,4a,5,6,7,8-hexahydro-1H-benzo[f]indazol-5-yl]-phenanthren-9-yl-methanol]
GR binding RBA (dex = 100) [2]: 72
EC50 (GR [1]; [4]): > 5000 nM
Emax (Coll A; Table 5): 73%
EC50 (Coll A; Table 5): 783 nM

More lines, main results first:

IC50 [2, 5]: 174 nM
SMILES: CC12Cc3cnn(-c4cccc(C#Cc5ccccc5)c4)c3C=C1CCCC2=O (centres unmarked) [Compound 261, 4a-Methyl-1-(3-phenylethynyl-phenyl)-1,4,4a,6,7,8-hexahydro-benzo[f]indazol-5-one]

IC50 [2, 6]: 708 nM
SMILES: CC12Cc3cnn(-c4ccc(F)cc4)c3C=C1CCc1c2[nH]c2ccc(Br)cc12 (centres unmarked) [Compound 263, 3-(4-fluoro-phenyl)-8-bromo-11b-methyl-5,6,12-trihydro-indazolo[5,6-a]carbazole]

IC50 [2, 6]: 239 nM
SMILES: COc1ccc2[nH]c3c(c2c1)CCC1=Cc2c(cnn2-c2ccc(F)cc2)CC13C (centres unmarked) [Compound 265, 3-(4-fluoro-phenyl)-8-methoxy-11b-methyl-5,6,12-trihydro-indazolo[5,6-a]carbazole]

IC50 [2, 6]: 130 nM
GRE Activation Max fold activation (GR [1]; Table 2, fold): 18
EC50 (Coll A; Table 2): 100 nM
SMILES: CC12Cc3cnn(-c4ccc(F)cc4)c3C=C1CCc1c2[nH]c2ccc(F)cc12 (centres unmarked) [Compound 267, 3-(4-fluoro-phenyl)-8-fluoro-11b-methyl-5,6,12-trihydro-indazolo[5,6-a]carbazole]
Emax (Coll A; Table 2): 75%

IC50 [2, 6]: 43 nM
EC50 (GR [1]; Table 2, read-out: GRE Activation GR pot (EC50)): > 5000 nM
EC50 (Coll A; Table 2): > 5000 nM
SMILES: CC12Cc3cnn(-c4ccc(F)cc4)c3C=C1CCC(=Cc1c3ccccc3cc3ccccc13)C2=O (centres unmarked) [Compound 269, 6-Anthracen-9-ylmethylene-1-(4-fluoro-phenyl)-4a-methyl-1,4,4a,6,7,8-hexahydro-benzo[f]indazol-5-one]

Reference: patent US7947726B2, “Non-steroidal ligands for the glucocorticoid receptor, and compositions thereof” (The Regents of the University of California, priority 2002, dated 2011)
